According to ChEMBL document CHEMBL6092164, “Rational design, synthesis, and biophysical characterization of a peptidic MDM2-MDM4 interaction inhibitor” (Bioorg Med Chem, 2024):

Molecular target: E3 ubiquitin-protein ligase Mdm2 (Homo sapiens, UniProt Q00987)
Assay: Binding affinity to RED dye fluorescently labelled full length human recombinant GST-tagged MDM2 expressed in Escherichia coli BL21 cells assessed as dissociation constant incubated for 60 mins in dark by Microscale Thermophoresis assay

Chain of E3 ubiquitin-protein ligase Mdm2 (Q00987 whole entry): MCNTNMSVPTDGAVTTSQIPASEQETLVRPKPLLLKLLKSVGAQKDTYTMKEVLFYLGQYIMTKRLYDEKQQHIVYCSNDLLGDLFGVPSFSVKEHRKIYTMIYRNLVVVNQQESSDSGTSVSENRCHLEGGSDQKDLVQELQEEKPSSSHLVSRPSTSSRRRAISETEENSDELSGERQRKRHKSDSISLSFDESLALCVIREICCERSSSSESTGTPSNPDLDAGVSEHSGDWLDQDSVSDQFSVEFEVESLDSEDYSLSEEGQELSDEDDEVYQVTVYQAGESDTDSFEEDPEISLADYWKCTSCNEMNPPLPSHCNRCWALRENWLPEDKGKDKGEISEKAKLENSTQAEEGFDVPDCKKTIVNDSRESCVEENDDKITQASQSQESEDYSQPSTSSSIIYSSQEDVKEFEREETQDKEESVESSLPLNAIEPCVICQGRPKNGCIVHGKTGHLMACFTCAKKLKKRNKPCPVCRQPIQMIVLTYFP

Substance	Kd
H-KVFIA-OH	19.2 µM
H-VAIKF-OH	> 1000 µM
